Activity calls are given as the source filed them. The calls are words filed in the database; no cut-off is given here.
Experiments:
[1] = Half life in Sprague-Dawley rat at 1.5 mg/kg, iv administered as single dose by LC-MS/MS analysis; format: ADME, organism-based; settings: in vivo
A2780 = experiment: Antiproliferative activity against human A2780 cells after 48 hrs by MTT assay; format: functional; settings: A2780, 48 h
HeLa [2] = experiment: Induction of apoptosis in human HeLa cells assessed as viable cells at 0.1 uM after 24 hrs by Annexin V-FITC/propidium iodide staining-based flow cytometric analysis (reference value: 92.8%); format: functional; settings: read-out: Activity
HeLa [3] = experiment: Inhibition of colony formation in human HeLa cells after 2 weeks by crystal violet staining-based assay; format: functional, cell-based
HeLa [4] = experiment: Induction of ROS generation in human HeLa cells at 0.02 to 0.2 uM after 12 hrs by DCFH-DA staining-based flow cytometric analysis; format: functional, cell-based
[5] = AUC (0 to t) in female Sprague-Dawley rat at 1.5 mg/kg, iv administered as single dose by LC-MS/MS analysis; format: ADME, organism-based; settings: in vivo
A549 = experiment: Antiproliferative activity against human A549 cells after 48 hrs by MTT assay; format: functional; settings: A549, 48 h
HeLa [6] = experiment: Antitumor activity against human HeLa cells xenografted in nude mouse assessed as tumor weight at 20 mg/kg, iv administered every other day up to 20 days (reference value: 1.014 +/- 0.116g); format: functional
Tubulin (Homo sapiens) [7] = target: T1, Tubulin (Homo sapiens) (UniProt P68371+Q9H4B7+P0DPH7+P68366+Q13509+Q71U36+P04350+Q3ZCM7+P07437+P68363+Q9BQE3+Q6PEY2+Q13885+Q9BVA1+Q9BUF5); experiment: Inhibition of tubulin polymerization in human HeLa cells assessed as induction of multinuclear giant cells at 0.05 after 12 hrs by DAPI staining-based confocal fluorescence microscopic analysis; format: cell-based
[8] = MRT (0 to infinity) in male Sprague-Dawley rat at 1.5 mg/kg, iv administered as single dose by LC-MS/MS analysis; format: ADME, organism-based; settings: in vivo
[9] = MRT (0 to infinity) in female Sprague-Dawley rat at 1.5 mg/kg, iv administered as single dose by LC-MS/MS analysis; format: ADME, organism-based; settings: in vivo
HeLa [10] = experiment: Induction of apoptosis in human HeLa cells assessed as late apoptotic cells at 0.05 uM after 24 hrs by Annexin V-FITC/propidium iodide staining-based flow cytometric analysis (reference value: 3.51%); format: functional
HeLa [11] = experiment: Cell cycle arrest in human HeLa cells assessed as reduction in accumulation of cells at G1 phase up to 0.4 uM after 24 hrs by propidium iodide staining-based flow cytometric analysis; format: functional
[12] = AUC (0 to infinity) in Sprague-Dawley rat at 1.5 mg/kg, iv administered as single dose by LC-MS/MS analysis; format: ADME, organism-based; parameters: dose 1.5 mg/kg, route intravenous, time infinity; settings: in vivo
[13] = Toxicity in mouse xenografted with human HeLa cells assessed as effect on body weight at 5 to 20 mg/kg, iv administered every other day up to 20 days; format: organism-based; settings: in vivo, 480 h
HeLa [14] = experiment: Antitumor activity against human HeLa cells xenografted in nude mouse assessed as tumor weight at 10 mg/kg, iv administered every other day up to 20 days (reference value: 1.014 +/- 0.116g); format: functional
[15] = MRT (0 to t) in female Sprague-Dawley rat at 1.5 mg/kg, iv administered as single dose by LC-MS/MS analysis; format: ADME, organism-based; settings: in vivo
[16] = MRT (0 to t) in male Sprague-Dawley rat at 1.5 mg/kg, iv administered as single dose by LC-MS/MS analysis; format: ADME, organism-based; settings: in vivo
HeLa [17] = experiment: Inhibition of colony formation in human HeLa cells at 0.1 uM after 2 weeks by crystal violet staining-based assay relative to control; format: functional; settings: 336 h
[18] = Toxicity in mouse xenografted with human HeLa cells assessed as change in liver weight at 5 to 20 mg/kg, iv administered every other day up to 20 days; format: organism-based; settings: in vivo, 480 h
[19] = AUC (0 to infinity) in male Sprague-Dawley rat at 1.5 mg/kg, iv administered as single dose by LC-MS/MS analysis; format: ADME, organism-based; parameters: dose 1.5 mg/kg, time infinity, route intravenous; settings: in vivo
HeLa [20] = experiment: Induction of apoptosis in human HeLa cells assessed as viable cells at 0.05 uM after 24 hrs by Annexin V-FITC/propidium iodide staining-based flow cytometric analysis (reference value: 92.8%); format: functional; settings: read-out: Activity
[21] = MRT (0 to t) in Sprague-Dawley rat at 1.5 mg/kg, iv administered as single dose by LC-MS/MS analysis; format: ADME, organism-based; settings: in vivo
Tubulin (Homo sapiens) [22] = target: T1, Tubulin (Homo sapiens); experiment: Inhibition of tubulin polymerization in human HeLa cells assessed as multipolar spindle formation at 0.02 after 12 hrs by DAPI staining-based confocal fluorescence microscopic analysis; format: cell-based
[23] = Apparent volume of distribution in female Sprague-Dawley rat at 1.5 mg/kg, iv administered as single dose by LC-MS/MS analysis; format: ADME, organism-based; settings: in vivo, read-out: Vd(app)
[24] = AUC (0 to t) in male Sprague-Dawley rat at 1.5 mg/kg, iv administered as single dose by LC-MS/MS analysis; format: ADME, organism-based; settings: in vivo
[25] = Half life in female Sprague-Dawley rat at 1.5 mg/kg, iv administered as single dose by LC-MS/MS analysis; format: ADME, organism-based; settings: in vivo
HeLa [26] = experiment: Induction of apoptosis in human HeLa cells assessed as early apoptotic cells at 0.05 uM after 24 hrs by Annexin V-FITC/propidium iodide staining-based flow cytometric analysis (reference value: 3.65%); format: functional
HeLa [27] = experiment: Induction of apoptosis in human HeLa cells assessed as late apoptotic cells at 0.1 uM after 24 hrs by Annexin V-FITC/propidium iodide staining-based flow cytometric analysis (reference value: 3.51%); format: functional
[28] = AUC (0 to t) in Sprague-Dawley rat at 1.5 mg/kg, iv administered as single dose by LC-MS/MS analysis; format: ADME, organism-based; settings: in vivo
[29] = Cmax in Sprague-Dawley rat at 1.5 mg/kg, iv administered as single dose by LC-MS/MS analysis; format: ADME, organism-based; parameters: dose 1.5 mg/kg, route intravenous; settings: in vivo
[30] = Clearance in Sprague-Dawley rat at 1.5 mg/kg, iv administered as single dose by LC-MS/MS analysis; format: ADME, organism-based; settings: in vivo
HeLa [31] = experiment: Antiproliferative activity against human HeLa cells after 48 hrs by MTT assay; format: functional
[32] = Clearance in female Sprague-Dawley rat at 1.5 mg/kg, iv administered as single dose by LC-MS/MS analysis; format: ADME, organism-based; settings: in vivo
[33] = AUC (0 to infinity) in female Sprague-Dawley rat at 1.5 mg/kg, iv administered as single dose by LC-MS/MS analysis; format: ADME, organism-based; parameters: dose 1.5 mg/kg, time infinity, route intravenous; settings: in vivo
Tubulin (Homo sapiens) [34] = target: T1, Tubulin (Homo sapiens); experiment: Inhibition of tubulin polymerization in human HeLa cells assessed as induction of mitotic phase arrest at 0.02 uM after 12 hrs by DAPI staining-based confocal fluorescence microscopic analysis; format: cell-based
HT-29 = experiment: Antiproliferative activity against human HT-29 cells after 48 hrs by MTT assay; format: functional; settings: HT-29, 48 h
HepG2 = experiment: Antiproliferative activity against human HepG2 cells after 48 hrs by MTT assay; format: functional; settings: HepG2, 48 h
HeLa [35] = experiment: Antitumor activity against human HeLa cells xenografted in nude mouse assessed as tumor growth inhibition administered intravenously every other day up to 20 days; format: functional, cell-based

half-life [1]: 54 min
GI50 (A2780): 600 nM
AUC(0-t) [5]: 319 ng·h/mL
GI50 (A549): 300 nM
Activity (Tubulin (Homo sapiens) [7]): Active
MRT inf [8]: 60 min
MRT inf [9]: 70.8 min
AUC(0-inf) [12]: 414 ng·h/mL
MRT last [15]: 57.6 min
MRT last [16]: 51 min
AUC(0-inf) [19]: 491 ng·h/mL
MRT last [21]: 54.6 min
Activity (Tubulin (Homo sapiens) [22]): Active
Vd [23]: 6.24 L/kg
AUC(0-t) [24]: 475 ng·h/mL
half-life [25]: 55.8 min
AUC(0-t) [28]: 397 ng·h/mL
Cmax [29]: 594 ng/mL
clearance [30]: 65.3 mL/min/kg
GI50 (HeLa [31]): 50 nM
clearance [32]: 79.7 mL/min/kg
AUC(0-inf) [33]: 336 ng·h/mL
Activity (Tubulin (Homo sapiens) [34]): Active
GI50 (HT-29): 100 nM
GI50 (HepG2): 980 nM
SMILES: COC(=O)N1N=C(c2cccc(C)c2)CC1c1cc(OC)c(OC)c(OC)c1 (centres undefined)
viability at 0.1 µM (HeLa [2]): 75.8%
inhibition (HeLa [3]): Dose-dependent effect
Activity (HeLa [4]): Active
Activity (HeLa [6]): 0.266 g
Activity (HeLa [10]): 4.95%
Activity (HeLa [11]): Active
Activity [13]: Non-Toxic
Activity (HeLa [14]): 0.631 g
inhibition at 0.1 µM (HeLa [17]): ≤ 80%
Activity [18]: Non-Toxic
viability at 0.05 µM (HeLa [20]): 84.4%
Activity (HeLa [26]): 10.2%
Activity (HeLa [27]): 6.03%
TGI (HeLa [35]): Dose-dependent effect
